Among the data in patent US20190328670A1, “Microparticles for Oral Delivery” (Intervet Inc., priority 2004, published 2019) are Gastrointestinal absorption values, retold here.

This series is described as follows: Oral bioavailability in rats compared with conventional formulations. It counts as in vivo. How it is done:
Glyceryl tricaprylate and tricaprate mixture solutions containing these drugs are admixed in complex slurry according to Example 1 and recovered as free-flowing powders as in Example 2. […] Oral bioavailability is tested in rats and compared with those from other conventional formulations.
A soy oil solution containing 100 parts per million of triclosan is admixed in a complex slurry containing 100 parts per million of chlorhexidine according to Example 1. Microbeads are then produced and recovered as free-flowing powders as in Example 2. […] Oral bioavailability is tested in rats and compared with those from other conventional formulations.

Take `Oc1cc(Cl)ccc1Oc1ccc(Cl)cc1Cl` [triclosan]: the Gastrointestinal absorption entry (rats, oral, from the microbeads/microcapsules versus powders, granules, or oil solution) is “more efficient”. Consider `[H]/N=C(\N/C(=N/[H])NCCCCCCNC(=N)NC(=N)Nc1ccc(Cl)cc1)Nc1ccc(Cl)cc1` [chlorhexidine], for which the Gastrointestinal absorption result (rat, in vivo, po) was “more efficient”.
